# US5668147A, “Quinolinecarboxylic acid derivatives and salts thereof” (Kaken Pharmaceutical Co., Ltd., priority 1993, dated 1997)
# Assays:
# S. aureus JS1 (MRSA) = experiment: Antibacterial activity, MIC by agar plate dilution assay; assay type: cell-based; design: unit not given here
# Procedure: (§1) Antibacterial activities of the compounds of the present invention were measured as the minimum inhibitory concentration (MIC) by the agar plate dilution assay method according to the standard method of Japan Society of Chemotherapy. Ofloxacin (OFLX) was used as the control compound.
# S. aureus KP90-3 (MRSA) = experiment: as above; assay type: cell-based; design: unit not given here
# Procedure: as §1
# S. aureus Smith = experiment: as above; assay type: cell-based; design: unit not given here
# Procedure: as §1
# S. pyogenes Cook = experiment: as above; assay type: cell-based; design: unit not given here
# Procedure: as §1
# E. coli JC3 = experiment: as above; assay type: cell-based; design: unit not given here
# Procedure: as §1
# E. faecalis 1373 = experiment: as above; assay type: cell-based; design: unit not given here
# Procedure: as §1
# [1] = test system: peripheral blood erythrocytes; experiment: Mutagenicity, micronucleus assay in mice; assay type: in vivo; settings: 8-week-old ICR mice; abdominally administered in olive oil; dose 200 mg/kg; before and 24, 48 and 72 hours after
# Procedure: Micronucleus assay was performed using 8-week-old ICR mice to confirm whether the compounds have mutagenicity. The compound of Example 21a was suspended in olive oil, and the suspension was abdominally administered to mice. The peripheral blood was obtained before and 24, 48 and 72 hours after the administration, and smeared specimens of the peripheral blood were prepared by acridine orange dying. In each specimen, 1000 erythrocytes were observed and frequency of occurrence of micronucleus was recorded. The frequency was not changed even in dose 200 mg/kg.
# [2] = Acute toxicity test, oral, ICR mice; settings: mouse, in vivo, 6-week-old ICR mice, orally, suspended in 0.5% methylcellulose
# Procedure: Acute toxicity test was performed using 6-week-old ICR mice. The compound of Example 21a was used as the tested compound. The compound was suspended in a 0.5% solution of methylcellulose, and the suspension was orally administered. The value of LD50 was at least 4000 mg/kg.
compound,measurement,setting,value
"O=C(O)c1cn(C2CC2)c2c(F)c(N3C[C@@H](CO)[C@H](C(F)(F)F)C3)c(F)cc2c1=O (relative stereo) [Example 6a, 1-Cyclopropyl-6,8-difluoro-1,4-dihydro-7-(trans-3-hydroxymethyl-4-trifluoromethyl-1-pyrrolidinyl)-4-oxoquinoline-3-carboxylic acid]",Minimum Inhibitory Concentration (MIC),S. aureus JS1 (MRSA),0.05
same,Minimum Inhibitory Concentration (MIC),S. aureus KP90-3 (MRSA),3.13
same,Minimum Inhibitory Concentration (MIC),S. aureus Smith,0.025
same,Minimum Inhibitory Concentration (MIC),S. pyogenes Cook,0.39
same,Minimum Inhibitory Concentration (MIC),E. coli JC3,0.39
same,Minimum Inhibitory Concentration (MIC),E. faecalis 1373,0.39
O=C(O)c1cn(C2CC2)c2c(Cl)c(N3C[C@@H](CO)[C@H](C(F)(F)F)C3)c(F)cc2c1=O (relative stereo) [Example 7a],Minimum Inhibitory Concentration (MIC),S. aureus JS1 (MRSA),0.013
same,Minimum Inhibitory Concentration (MIC),S. aureus KP90-3 (MRSA),0.39
same,Minimum Inhibitory Concentration (MIC),S. aureus Smith,≤ 0.006
same,Minimum Inhibitory Concentration (MIC),S. pyogenes Cook,0.1
same,Minimum Inhibitory Concentration (MIC),E. coli JC3,0.39
same,Minimum Inhibitory Concentration (MIC),E. faecalis 1373,0.2
Nc1c(F)c(N2C[C@@H](CO)[C@H](C(F)(F)F)C2)c(F)c2c1c(=O)c(C(=O)O)cn2C1CC1 (relative stereo) [Example 8a],Minimum Inhibitory Concentration (MIC),S. aureus JS1 (MRSA),0.013
same,Minimum Inhibitory Concentration (MIC),S. aureus KP90-3 (MRSA),3.13
same,Minimum Inhibitory Concentration (MIC),S. aureus Smith,≤ 0.006
same,Minimum Inhibitory Concentration (MIC),S. pyogenes Cook,0.39
same,Minimum Inhibitory Concentration (MIC),E. coli JC3,0.2
same,Minimum Inhibitory Concentration (MIC),E. faecalis 1373,0.2
"COc1c(N2C[C@@H](CO)[C@H](C(F)(F)F)C2)c(F)cc2c(=O)c(C(=O)O)cn(C3CC3)c12 (relative stereo) [Example 9a, 1-Cyclopropyl-6-fluoro-1,4-dihydro-7-(trans-3-hydroxymethyl-4-trifluoromethyl-1-pyrrolidinyl)-8-methoxy-4-oxoquinoline-3-carboxylic acid]",Minimum Inhibitory Concentration (MIC),S. aureus JS1 (MRSA),0.013
same,Minimum Inhibitory Concentration (MIC),S. aureus KP90-3 (MRSA),0.78
same,Minimum Inhibitory Concentration (MIC),S. aureus Smith,≤ 0.006
same,Minimum Inhibitory Concentration (MIC),S. pyogenes Cook,0.2
same,Minimum Inhibitory Concentration (MIC),E. coli JC3,0.39
same,Minimum Inhibitory Concentration (MIC),E. faecalis 1373,0.2
"Cl.NC[C@@H]1CN(c2c(F)cc3c(=O)c(C(=O)O)cn(C4CC4)c3c2F)C[C@H]1C(F)(F)F (relative stereo) [Example 12a, 7-(Trans-3-aminomethyl-4-trifluoromethyl-1-pyrrolidinyl)-1-cyclopropyl-6,8-difluoro-1,4-dihydro-4-oxoquinoline-3-carboxylic acid hydrochloride]",Minimum Inhibitory Concentration (MIC),S. aureus JS1 (MRSA),0.025
same,Minimum Inhibitory Concentration (MIC),S. aureus KP90-3 (MRSA),0.78
same,Minimum Inhibitory Concentration (MIC),S. aureus Smith,0.013
same,Minimum Inhibitory Concentration (MIC),S. pyogenes Cook,0.025
same,Minimum Inhibitory Concentration (MIC),E. coli JC3,0.05
same,Minimum Inhibitory Concentration (MIC),E. faecalis 1373,0.1
NC[C@@H]1CN(c2c(F)cc3c(=O)c(C(=O)O)cn(C4CC4)c3c2Cl)C[C@H]1C(F)(F)F (relative stereo) [Example 15a],Minimum Inhibitory Concentration (MIC),S. aureus JS1 (MRSA),0.013
same,Minimum Inhibitory Concentration (MIC),S. aureus KP90-3 (MRSA),0.39
same,Minimum Inhibitory Concentration (MIC),S. aureus Smith,≤ 0.006
same,Minimum Inhibitory Concentration (MIC),S. pyogenes Cook,0.013
same,Minimum Inhibitory Concentration (MIC),E. coli JC3,0.05
same,Minimum Inhibitory Concentration (MIC),E. faecalis 1373,0.1
NC[C@@H]1CN(c2c(F)c(N)c3c(=O)c(C(=O)O)cn(C4CC4)c3c2F)C[C@H]1C(F)(F)F (relative stereo) [Example 18a],Minimum Inhibitory Concentration (MIC),S. aureus JS1 (MRSA),≤ 0.006
same,Minimum Inhibitory Concentration (MIC),S. aureus KP90-3 (MRSA),1.56
same,Minimum Inhibitory Concentration (MIC),S. aureus Smith,≤ 0.006
same,Minimum Inhibitory Concentration (MIC),S. pyogenes Cook,0.013
same,Minimum Inhibitory Concentration (MIC),E. coli JC3,0.025
same,Minimum Inhibitory Concentration (MIC),E. faecalis 1373,0.05
COc1c(N2C[C@@H](CN)[C@H](C(F)(F)F)C2)c(F)cc2c(=O)c(C(=O)O)cn(C3CC3)c12 (relative stereo) [Example 21a],frequency of occurrence of micronucleus,[1],not changed
same,Minimum Inhibitory Concentration (MIC),S. aureus JS1 (MRSA),0.013
same,Minimum Inhibitory Concentration (MIC),S. aureus KP90-3 (MRSA),0.78
same,Minimum Inhibitory Concentration (MIC),S. aureus Smith,0.013
same,Minimum Inhibitory Concentration (MIC),S. pyogenes Cook,0.025
same,Minimum Inhibitory Concentration (MIC),E. coli JC3,0.1
same,Minimum Inhibitory Concentration (MIC),E. faecalis 1373,0.1
same,LD50,[2],≥ 4000 mg/kg
N[C@@H]1CN(c2c(F)cc3c(=O)c(C(=O)O)cn(C4CC4)c3c2F)C[C@H]1C(F)(F)F (relative stereo) [Example 23a],Minimum Inhibitory Concentration (MIC),S. aureus JS1 (MRSA),0.2
same,Minimum Inhibitory Concentration (MIC),S. aureus KP90-3 (MRSA),12.5
same,Minimum Inhibitory Concentration (MIC),S. aureus Smith,0.1
same,Minimum Inhibitory Concentration (MIC),S. pyogenes Cook,0.78
same,Minimum Inhibitory Concentration (MIC),E. coli JC3,0.2
same,Minimum Inhibitory Concentration (MIC),E. faecalis 1373,0.78
N[C@@H]1CN(c2c(F)cc3c(=O)c(C(=O)O)cn(C4CC4)c3c2Cl)C[C@H]1C(F)(F)F (relative stereo) [Example 26a],Minimum Inhibitory Concentration (MIC),S. aureus JS1 (MRSA),0.05
same,Minimum Inhibitory Concentration (MIC),S. aureus KP90-3 (MRSA),3.13
same,Minimum Inhibitory Concentration (MIC),S. aureus Smith,0.05
same,Minimum Inhibitory Concentration (MIC),S. pyogenes Cook,0.39
same,Minimum Inhibitory Concentration (MIC),E. coli JC3,0.2
same,Minimum Inhibitory Concentration (MIC),E. faecalis 1373,0.39
Nc1c(F)c(N2C[C@@H](N)[C@H](C(F)(F)F)C2)c(F)c2c1c(=O)c(C(=O)O)cn2C1CC1 (relative stereo) [Example 29a],Minimum Inhibitory Concentration (MIC),S. aureus JS1 (MRSA),0.05
same,Minimum Inhibitory Concentration (MIC),S. aureus KP90-3 (MRSA),25
same,Minimum Inhibitory Concentration (MIC),S. aureus Smith,0.025
same,Minimum Inhibitory Concentration (MIC),S. pyogenes Cook,0.2
same,Minimum Inhibitory Concentration (MIC),E. coli JC3,0.05
same,Minimum Inhibitory Concentration (MIC),E. faecalis 1373,0.39
COc1c(N2C[C@@H](N)[C@H](C(F)(F)F)C2)c(F)cc2c(=O)c(C(=O)O)cn(C3CC3)c12 (relative stereo) [Example 31a],Minimum Inhibitory Concentration (MIC),S. aureus JS1 (MRSA),0.05
same,Minimum Inhibitory Concentration (MIC),S. aureus KP90-3 (MRSA),3.13
same,Minimum Inhibitory Concentration (MIC),S. aureus Smith,0.05
same,Minimum Inhibitory Concentration (MIC),S. pyogenes Cook,0.39
same,Minimum Inhibitory Concentration (MIC),E. coli JC3,0.39
same,Minimum Inhibitory Concentration (MIC),E. faecalis 1373,0.39
N[C@@H]1CN(c2nc3c(cc2F)c(=O)c(C(=O)O)cn3-c2ccc(F)cc2F)C[C@H]1C(F)(F)F (relative stereo) [Example 35a],Minimum Inhibitory Concentration (MIC),S. aureus JS1 (MRSA),0.1
same,Minimum Inhibitory Concentration (MIC),S. aureus KP90-3 (MRSA),25
same,Minimum Inhibitory Concentration (MIC),S. aureus Smith,0.05
same,Minimum Inhibitory Concentration (MIC),S. pyogenes Cook,0.39
same,Minimum Inhibitory Concentration (MIC),E. coli JC3,0.78
same,Minimum Inhibitory Concentration (MIC),E. faecalis 1373,0.78
"CC1COc2c(N3CCN(C)CC3)c(F)cc3c(=O)c(C(=O)O)cn1c23 (centres unmarked) [OFLX, Ofloxacin, reference compound]",Minimum Inhibitory Concentration (MIC),S. aureus JS1 (MRSA),0.39
same,Minimum Inhibitory Concentration (MIC),S. aureus KP90-3 (MRSA),25
same,Minimum Inhibitory Concentration (MIC),S. aureus Smith,0.2
same,Minimum Inhibitory Concentration (MIC),S. pyogenes Cook,0.78
same,Minimum Inhibitory Concentration (MIC),E. coli JC3,0.1
same,Minimum Inhibitory Concentration (MIC),E. faecalis 1373,1.56
